Laboratory results as given in article PMC8512562, “Semisynthetic Derivatives of Selected Amaryllidaceae Alkaloids as a New Class of Antimycobacterial Agents” (Molecules, 2021).
Values after ≈ are worked out from the molar mass of the structure shown. Where two headings read alike, the source gives them in different places.

What was measured:
[1] = test system: Mycobacterium aurum DSM 43999 (ATCC 23366); test: Antimycobacterial screening (microdilution broth, resazurin) against M. aurum; type: cell-based; conditions: for MIC: Mycolicibacterium aurum, read-out: MIC M. aurum; for MIC values for standards, range, M. aurum: range of MIC of the standards in the assay
[2] = test system: Mycobacterium tuberculosis H37Ra; test: Antimycobacterial screening (microdilution broth, resazurin) against M. tuberculosis H37Ra; type: cell-based; conditions: for MIC: Mycobacterium tuberculosis; for MIC values for standards, range, M. tuberculosis: range of MIC of the standards in the assay
[3] = test system: Mycobacterium smegmatis DSM 43465 (ATCC 607); test: Antimycobacterial screening (microdilution broth, resazurin) against M. smegmatis; type: cell-based; conditions: for MIC: Mycolicibacterium smegmatis, read-out: MIC M. smegmatis
HepG2 cells = test: cells; type: cell-based, Human; conditions: for IC50: Homo sapiens, HepG2, MTT, 24 h incubation
[4] = H37RA, read-out: MIC Mtb H37Ra (µM)
[5] = M. tuberculosis H37Ra, resazurin added after 120 h, read-out: MIC Mtb H37Ra
[6] = H37RA, 120 h, read-out: MIC Mtb H37Ra

SMILES | MIC ([1]; 72 h) [µg/mL] | MIC [2, 4] [µM] | MIC [2, 5] [µg/mL] | MIC ([3]; 48 h) [µg/mL] | MIC ([1]; resazurin added after 72 h) [µg/mL] | MIC values for standards, range, M. aurum [1] [µg/mL] | MIC values for standards, range, M. tuberculosis [2] [µg/mL] | MIC ([3]; resazurin added after 48 h) [µg/mL] | MIC values for standards, range, M. smegmatis ([3]; range of MIC of the standards in the assay) [µg/mL] | SI (selectivity index) (HepG2 cells) | IC50 (HepG2 cells) [µM] | MIC [2, 6] [µg/mL]
O[C@@H]1C=C[C@]23CCN(Cc4cc5c(cc42)OCO5)[C@H]3C1 [vittatine (4), vittatine] | 250 (≈ 921 µM) | ≥ 1840 | ≥ 500 | ≥ 500 | – | – | – | – | – | – | – | –
O=C(O)c1cn(C2CC2)c2cc(N3CCNCC3)c(F)cc2c1=O [ciprofloxacin, reference compound] | – | 0.75 | 0.25 | – | 0.0156 (≈ 0.0472 µM) | 0.0078 to 0.0156 | 0.125 to 0.25 | 0.125 (≈ 0.377 µM) | 0.0625 to 0.125 | – | – | –
COc1ccc2c3c1O[C@H]1C[C@@H](OC(=O)c4cc(C)cc(C)c4)C=C[C@@]31CCN(C)C2 [1f, 6-O-(3,5-dimethylbenzoyl)galanthamine] | 7.81 (≈ 18.6 µM) | 17.1 | 7.81 | 7.81 (≈ 18.6 µM) | – | – | – | – | – | 1.03 | 17.6 ± 4.7 | –
COc1ccc2c3c1O[C@H]1C[C@@H](OC(=O)c4ccc(C)cc4)C=C[C@@]31CCN(C)C2 [1d, 6-O-(4-methylbenzoyl)galanthamine] | 15.6 (≈ 38.5 µM) | 35.4 | 15.6 | 31.2 (≈ 77.1 µM) | – | – | – | – | – | – | – | –
COc1ccc2c3c1O[C@H]1C[C@@H](OC(=O)c4cccc(C)c4)C=C[C@@]31CCN(C)C2 [1c, 6-O-(3-methylbenzoyl)galanthamine] | 15.6 (≈ 38.5 µM) | 35.4 | 15.6 | 31.2 (≈ 77.1 µM) | – | – | – | – | – | – | – | –
CCOc1cc(OCC)cc(C(=O)OC2C=C3C4CN(Cc5cc6c(cc54)OCO6)C3CC2OC)c1 (centres unmarked) [3e, 2-O-(3,5-diethoxybenzoyl)-3-O-methylpancracine] | 7.81 (≈ 15.8 µM) | 7.8 | – | 15.6 (≈ 31.7 µM) | – | – | – | – | – | – | 24.9 ± 1.7 | 3.91
COC1CC2C(=CC1OC(=O)c1ccc(C(C)(C)C)cc1)C1CN2Cc2cc3c(cc21)OCO3 (centres unmarked) [3c, 2-O-(4-tert-butylbenzoyl)-3-O-methylpancracine] | 7.81 (≈ 16.9 µM) | 7.9 | 3.91 | 7.81 (≈ 16.9 µM) | – | – | – | – | – | 3.08 | 24.3 ± 2.4 | –
COc1ccc2c3c1O[C@H]1C[C@@H](OC(=O)c4ccccc4)C=C[C@@]31CCN(C)C2 [1a, 6-O-benzoylgalanthamine] | 31.2 (≈ 79.8 µM) | 79.8 | 31.2 | – | – | – | – | ≥ 500 | – | – | – | –
COC1CC2C(=CC1OC(=O)c1c(C)cc(C)cc1C)C1CN2Cc2cc3c(cc21)OCO3 (centres unmarked) [3b, 2-O-(2,4,6-trimethylbenzoyl)-3-O-methylpancracine] | 7.81 (≈ 17.5 µM) | 16.1 | 7.81 | 15.6 (≈ 34.9 µM) | – | – | – | – | – | 1.94 | 31.2 ± 5.4 | –
COc1cc2c(cc1OC)[C@@]13C=C[C@@H](O)C[C@@H]1N(CC3)C2 [maritidine (5), maritidine] | ≥ 500 | ≥ 1740 | ≥ 500 | ≥ 500 | – | – | – | – | – | – | – | –
COc1ccccc1C(=O)O[C@H]1C=C[C@@]23CCN(C)Cc4ccc(OC)c(c42)O[C@H]3C1 [1j, 6-O-(2-methoxybenzoyl)galanthamine] | 125 (≈ 297 µM) | 148 | 62.5 | 250 (≈ 593 µM) | – | – | – | – | – | – | – | –
COC1C=CC23c4cc5c(cc4CN(CC2O)C3C1)OCO5 (centres unmarked) [haemanthamine (2), haemanthamine] | ≥ 500 | ≥ 1660 | ≥ 500 | ≥ 500 | – | – | – | – | – | – | – | –
O[C@H]1[C@H]2c3cc4c(cc3CN3CCC(=C[C@@H]1O)[C@H]23)OCO4 [lycorine (7), lycorine] | ≥ 500 | ≥ 1740 | ≥ 500 | ≥ 500 | – | – | – | – | – | – | – | –
COc1ccc2c3c1O[C@H]1C[C@@H](O)C=C[C@@]31CCN(C)C2 [galanthamine (1), galanthamine, reference compound] | ≥ 500 | ≥ 1740 | ≥ 500 | ≥ 500 | – | – | – | – | – | – | – | –
CO[C@H]1/C=C/O[C@@]2(C)Oc3c(C)c(O)c4c(O)c(c(/C=N/N5CCN(C)CC5)c(O)c4c3C2=O)NC(=O)/C(C)=C\C=C\[C@H](C)[C@H](O)[C@@H](C)[C@@H](O)[C@@H](C)[C@H](OC(C)=O)[C@@H]1C [rifampicin, reference compound] | – | 0.0075 | – | – | 0.39 (≈ 0.474 µM) | 0.39 to 0.78 | 0.0039 to 0.0078 | 6.25 (≈ 7.59 µM) | – | – | – | 0.00625
COc1ccc(C(=O)O[C@H]2C=C[C@@]34CCN(C)Cc5ccc(OC)c(c53)O[C@H]4C2)cc1 [1l, 6-O-(4-methoxybenzoyl)galanthamine] | 31.2 (≈ 74.1 µM) | 68.3 | 31.2 | 62.5 (≈ 148 µM) | – | – | – | – | – | – | – | –
COc1cc(OC)cc(C(=O)O[C@H]2C=C[C@@]34CCN(C)Cc5ccc(OC)c(c53)O[C@H]4C2)c1 [1n, 6-O-(3,5-dimethoxybenzoyl)galanthamine] | 31.2 (≈ 69.2 µM) | 34.6 | 15.6 | 31.2 (≈ 69.2 µM) | – | – | – | – | – | – | – | –
